Article PMC8066102, “Metabolic Profiles of New Unsymmetrical Bisacridine Antitumor Agents in Electrochemical and Enzymatic Noncellular Systems and in Tumor Cells” (Pharmaceuticals, 2021)

Tests used:
[1] = tested on: rat liver microsomes, P450-RLMs Dex-induced; experiment: Metabolism with rat liver microsomes (Dex-induced P450-RLMs); type: in vitro ADME; conditions: 0.05 mM compound, 2 mM NADPH; for conversion rate: 2 mg/mL Dex-induced P450-RLMs, 30 min; for substrate consumption: Dex-induced P450-RLMs, 10 min
Method: The initial studies on drug metabolism of new UAs were performed with rat liver microsomes under the optimal conditions. HEPES buffer (0.1 M) at pH 7.4 with 2 mM NADPH and 0.05 mM UAs (C-2028 and C-2045) were selected.
UT-RLMs (2 mg/mL) and P450-RLMs induced with Dex, 3MC, or PB and recombinant P4502C19 and P4503A4 (1 mg/mL) were assayed for activity toward tested UAs as follows. The proteins were incubated in a buffer containing 0.1 M HEPES (pH 7.4), 2 mM MgCl2 with 0.05 mM substrate in total volume 70 µL. Substrates were added also in buffer HEPES, pH 7.4. Reactions were started by the addition of NADPH (2 mM) and were incubated for specified time at 37 °C. The reactions were stopped by the addition of 8.75 µL of 1 M HCl, followed by centrifugation at 13,400 rpm for 10 min to pellet the denatured protein. The supernatant fractions were used for high-performance liquid chromatography (HPLC) analysis. Control reactions omitting substrate were run with each assay. All incubations were performed in two repetitions.

UGT 2B17 = biological target: T1, UGT 2B17 (Homo sapiens, UniProt O75795); experiment: Glucuronidation with recombinant UGT2B17; type: in vitro ADME; set-up: key: −: the lack of UGT activity; +: the significant UGT activity; conditions: 0.05 mM compound, 1 mg/mL UGT, 5 mM UDPGA
T1 construct: purchased Corning, NY, USA (through DIAG-MED, Poland); host or cells: baculovirus-insect cells (Supersomes)
T1 sequence (O75795 24-530): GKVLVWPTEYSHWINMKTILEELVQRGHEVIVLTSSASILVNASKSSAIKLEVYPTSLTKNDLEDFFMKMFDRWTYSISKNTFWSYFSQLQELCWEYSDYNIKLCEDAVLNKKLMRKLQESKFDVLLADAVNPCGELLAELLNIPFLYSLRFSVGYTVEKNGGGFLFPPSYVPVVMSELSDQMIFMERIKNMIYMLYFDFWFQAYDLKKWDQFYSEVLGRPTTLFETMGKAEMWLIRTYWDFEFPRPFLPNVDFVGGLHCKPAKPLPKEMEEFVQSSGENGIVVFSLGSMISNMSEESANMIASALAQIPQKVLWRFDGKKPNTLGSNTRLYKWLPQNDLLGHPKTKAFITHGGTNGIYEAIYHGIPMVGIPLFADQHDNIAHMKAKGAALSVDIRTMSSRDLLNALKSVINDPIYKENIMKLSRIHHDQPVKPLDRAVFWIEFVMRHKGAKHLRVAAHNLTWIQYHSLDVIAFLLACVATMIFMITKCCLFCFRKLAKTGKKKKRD
Method: Recombinant UGT isoform protein (1 mg/mL) was assayed for activity toward tested UAs as follows. The proteins were incubated in a buffer containing 0.1 M HEPES (pH 7.4), 8 mM MgCl2 and alamethicin (25 μg/mL) with either 0.05 mM substrate in total volume 70 µL (alamethicin was added to permeabilize the membrane). Substrates were also in buffer HEPES, pH 7.4. Reactions were started by the addition of UDPGA (5 mM) and were incubated for specified time at 37 °C. The reactions were stopped by the addition of 8.75 µL of 1 M HCl, followed by centrifugation at 13400 rpm for 10 min to pellet the denatured protein. The supernatant fractions were used for HPLC analysis. Control reactions omitting substrate were run with each assay. All incubations were performed in two repetitions.

HT-29 cells = experiment: Drug metabolism and medium/cell extract distribution in HT-29 colon tumor cells; type: cell-based, human; conditions: HT-29, 5 μM; for drug level in cell extract: 3-48 h; for metabolite formation in cells: post-culture media and cell extracts
Method: To analyze the transformation products of UAs in colon tumor cell lines, HCT-116 or HT-29 cells were plated in 60 mm Petri dishes; after reaching 80% of confluence, cells were treated with 5/25/50 μM of C-2028, C-2045 or C-2053 (prepared as 10 or 2 mM stock solutions in water) for specified time. Half of medium was added to acetonitrile (1:1, v/v), centrifuged (12 min, 13,400 rpm, 4 °C) and the supernatant was analyzed by HPLC (post-culture medium). Cells remaining on the Petri dishes were collected by gentle scraping, sedimented, washed with ice-cold PBS, suspended in ice-cold chloroform and lysed by sonication for 15 min. After 1 h on ice, insoluble material was removed by centrifugation at 13,000 rpm for 20 min at 4 °C. The sediment was discarded and supernatant (chloroform) were evaporated under pressure. Then, sample was suspended in ice-cold 60% methanol and directly analyzed by HPLC (cell extract).

P4503A4 = biological target: T2, P4503A4 (Homo sapiens, UniProt P08684); experiment: Modulation of P4503A4 activity (testosterone β-hydroxylation); type: in vitro ADME; conditions: for mechanism of P4503A4 inhibition: testosterone 0.02-0.2 mM, inhibitor 0-0.01 mM, nonlinear regression; for decrease in activity of P4503A4: testosterone β-hydroxylation, all concentrations (0.01, 0.02 and 0.05 mM), 30 min
T2 construct: purchased Cypex, Dundee, Scotland, UK (through Tebu-Bio); host or cells: Escherichia coli (Bactosomes)
Method: Isoenzyme activity was studied by the rate measurement of β-hydroxylation of testosterone (specific substrate for P4503A4) and of glucuronidation of specific substrates, namely, SN-38 (UGT1A1), EPI (UGT2B7),) and TFK (UGT2B15). All substrate and drug solutions were prepared as 10 mM stock solutions in DMSO and were diluted in […] (pH 7.4). The mixture containing isoenzymes P4503A4/UGT (0.5 mg/mL), probe substrate (0.1 mM), cofactor 2 mM NADPH/5 mM UDPGA and the increasing concentrations of tested UA (0, 0.01, 0.02 and 0.05 mM) was incubated in the reaction buffer containing (i) for P4503A4 0.1 M HEPES, 88 mM MgCl2 and (ii) for UGT 0.1 M HEPES, 88 mM MgCl2, 25 μg/mL alamethicin at 37 °C for 30 min and were terminated by adding 8.75 µL of 0.1 M HCl. The samples were placed in ice for 10 min and centrifuged (10 min, 13,400 rpm). Supernatant fractions were analyzed by HPLC. For more accurate investigation of P4503A4 inhibition by C-2045 and C-2053 the β-hydroxylation rate was measured at various concentrations of testosterone: 0.02, 0.05, 0.1 and 0.2 mM. The inhibitor (UA) concentrations were 0, 0.001, 0.005 and 0.01 mM, whereas the incubation time 30 min and concentration of P4503A4 (0.5 mg/mL).

T2 sequence (P08684 whole entry): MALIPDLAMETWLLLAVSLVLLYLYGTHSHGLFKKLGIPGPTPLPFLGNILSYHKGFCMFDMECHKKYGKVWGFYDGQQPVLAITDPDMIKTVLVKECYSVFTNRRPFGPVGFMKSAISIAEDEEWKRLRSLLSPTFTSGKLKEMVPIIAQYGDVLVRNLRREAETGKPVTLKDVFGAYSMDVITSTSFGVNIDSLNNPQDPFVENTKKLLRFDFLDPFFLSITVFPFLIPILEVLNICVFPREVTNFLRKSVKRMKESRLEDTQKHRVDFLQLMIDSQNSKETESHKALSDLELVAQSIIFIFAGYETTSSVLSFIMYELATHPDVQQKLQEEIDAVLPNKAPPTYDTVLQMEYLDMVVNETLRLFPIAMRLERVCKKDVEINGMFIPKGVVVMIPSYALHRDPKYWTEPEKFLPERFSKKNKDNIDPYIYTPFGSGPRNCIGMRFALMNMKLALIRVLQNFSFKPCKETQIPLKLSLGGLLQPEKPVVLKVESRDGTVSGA

Row | Structure (SMILES) | conversion rate [1] [%] | substrate consumption [1] | Glucuronidation potency UGT 2B17 (UGT 2B17) | drug level in cell extract (HT-29 cells) | metabolite formation in cells (HT-29 cells) | mechanism of P4503A4 inhibition (P4503A4) | decrease in activity of P4503A4 (P4503A4)
1 | CN(CCCNc1c2ccccc2nc2cccc([N+](=O)[O-])c12)CCCNc1ccc2ncn3c4ccccc4c(=O)c1c23 [C-2028] | 100 | completely consumed | − | high up to 24 hours and diminished significantly after 48 hours | did not indicate the presence of metabolites |  | 
2 | Cc1ccc([N+](=O)[O-])c2c(NCCCN(C)CCCNc3ccc4ncn5c6ccccc6c(=O)c3c45)c3ccccc3nc12 [C-2053] |  |  | − | extremely high level | did not indicate the presence of metabolites | competitive | above 50%
3 | Cc1ccc([N+](=O)[O-])c2c(NCCCN(C)CCCNc3ccc4ncn5c6ccc(O)cc6c(=O)c3c45)c3ccccc3nc12 [C-2045] | 80 | not metabolized | − |  |  | non-competitive | over 90%
